Measurements as given in ChEMBL document CHEMBL5131417, “Metabolic installation of macrophage-recruiting glycan ligand on tumor cell surface for in vivo tumor suppression” (Bioorg Med Chem Lett, 2022).
Active and inactive are the calls of the source. No cut-off for these calls is given here.

Tests used:
[1] = Toxicity in mouse B16-F10 cells assessed as effect on cell viability at 0.1 to 100 uM incubated for 24 hrs; type: cell-based; settings: b16-f10, 24 h, dose 0.1-100 µM
[2] = Drug distribution in plasma membrane of mouse B16-F10 cells at 100 uM incubated for 24 hrs by confocal microscopy; type: ADME, cell membranes; settings: b16-f10, 24 h
U-87 MG = test: Drug distribution in plasma membrane of human U87 cells at 100 uM incubated for 24 hrs by confocal microscopy; type: ADME, cell-based; settings: u-87mg atcc
B16-F10 [3] = test: Antitumor activity against B16-F10 cells implanted in C57BL/6 mouse assessed as reduction in size and number of metastasis in lung at 30 mg/kg, iv dosed every day after tumor transplantation; type: functional, organism-based
B16-F10 [4] = test: Activation of binding of GFP-expressed mouse B16-F10 cells with mouse RAW264.7 cells at 100 uM incubated for 24 hrs by fluorescence microscopy; type: functional, cell-based
[5] = Toxicity in C57BL/6 mouse assessed as induction of abnormal death at 300 mg/kg, iv measured up to 100 days after injection; type: organism-based; settings: in vivo, 2400 h, time < 100 day
B16-F10 [6] = test: Antitumor activity against B16-F10 cells implanted in C57BL/6 mouse assessed as reduction in tumor volume at 30 mg/kg, iv dosed on 2nd, 4th, 6th, 8th, 10th, 12th and 14th day post tumor transplantation; type: functional; design: scale not given: the % may be the effect or the level left; settings: time 14 day

## CC(=O)N[C@H]1[C@H]([C@H](O)[C@H](O)CNC(=O)c2cc3c(s2)-c2ccccc2OC3)O[C@@](O)(C(=O)O)C[C@@H]1O
[1]
  Activity: Non-Toxic
[2]
  Drug uptake: Active
U-87 MG
  Drug uptake: Active
B16-F10 [3]
  Activity: Active
B16-F10 [4]
  Activity: Active
[5]
  Activity: Non-Toxic
B16-F10 [6]
  Activity: 60%
